Patent US8367873B2, “Phenyl-substituted bicyclooctane-1,3-dione derivatives” (Bayer Cropscience AG, priority 2008, dated 2013)

Assays:
Format in all cases: in vivo
Setaria viridis [1] = assay: Herbicidal pre-emergence action; conditions: pre-emergence method, 80 g/ha, greenhouse, visual assessment vs untreated controls
In short: (§1)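 Test compounds, as wettable powder suspensions with 0.2% wetting agent at a water rate of 600 l/ha, were applied in different amounts to the covering soil over freshly sown seeds in sandy loam. Emergence damage was rated visually in percent against untreated plants after three weeks under greenhouse conditions.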

Echinocloa crus-galli [2] = assay: Herbicidal pre-emergence action; conditions: pre-emergence method, 80 g/ha, greenhouse, visual assessment vs untreated controls
In short: as §1

Alopecurus myosuroides [3] = assay: Herbicidal pre-emergence action; conditions: pre-emergence method, 80 g/ha, greenhouse, visual assessment vs untreated controls
In short: as §1

Lolium multiflorum [4] = assay: Herbicidal pre-emergence action; conditions: pre-emergence method, 80 g/ha, greenhouse, visual assessment vs untreated controls
In short: as §1

Setaria viridis [5] = assay: Herbicidal post-emergence action; conditions: post-emergence method; for herbicidal effect against SETVI (Setaria viridis): 80 g/ha
In short: (§2)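 Visual % herbicidal effect vs untreated controls (100% = plants dead, 0% = as control), ~3 wk after spraying. Plants sown in sandy loam, greenhouse-grown, treated at one-leaf stage (2–3 wk post-sowing). WP formulations, 600 l/ha water + 0.2% wetting agent, various doses.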

Echinocloa crus-galli [6] = assay: Herbicidal post-emergence action; conditions: post-emergence method; for herbicidal effect against ECHCG (Echinochloa crus-galli): 80 g/ha
In short: as §2

Alopecurus myosuroides [7] = assay: Herbicidal post-emergence action; conditions: post-emergence method; for herbicidal effect against ALOMY (Alopecurus myosuroides): 80 g/ha
In short: as §2

Lolium multiflorum [8] = assay: Herbicidal post-emergence action; conditions: post-emergence method; for herbicidal effect against LOLMU (Lolium multiflorum): 80 g/ha
In short: as §2

[9] = tested on: monocotylidonous and dicotylidonous weed and crop plants; assay: Herbicidal post-emergence action (other test plants); conditions: post-emergence method; for herbicidal effect against AVEFA (Avena fatua): 80 g/ha
In short: as §2

[10] = tested on: monocotylidonous and dicotylidonous weed and crop plants; assay: Herbicidal pre-emergence action (other test plants); conditions: pre-emergence method, 80 g/ha, greenhouse, visual assessment vs untreated controls
In short: as §1

SMILES	herbicidal effect SETVI (Setaria viridis [1]) [%]	herbicidal effect ECHCG (Echinocloa crus-galli [2]) [%]	herbicidal effect ALOMY (Alopecurus myosuroides [3]) [%]	herbicidal effect LOLMU (Lolium multiflorum [4]) [%]	herbicidal effect against SETVI (Setaria viridis) (Setaria viridis [5]) [%]	herbicidal effect against ECHCG (Echinochloa crus-galli) (Echinocloa crus-galli [6]) [%]	herbicidal effect against ALOMY (Alopecurus myosuroides) (Alopecurus myosuroides [7]) [%]	herbicidal effect against LOLMU (Lolium multiflorum) (Lolium multiflorum [8]) [%]	herbicidal effect against AVEFA (Avena fatua) [9] [%]	herbicidal effect AVEFA [10] [%]	pest or weed control at 80 g/ha (Setaria viridis [5]; Setaria viridis, 504 h, read-out: herbicidal effect against SETVI (Setaria viridis)) [%]	pest or weed control at 80 g/ha (Echinocloa crus-galli [6]; Echinochloa crus-galli, 504 h, read-out: herbicidal effect against ECHCG (Echinochloa crus-galli)) [%]	pest or weed control at 80 g/ha (Alopecurus myosuroides [7]; Alopecurus myosuroides, 504 h, read-out: herbicidal effect against ALOMY (Alopecurus myosuroides)) [%]	pest or weed control at 80 g/ha (Lolium multiflorum [8]; Lolium multiflorum, 504 h, read-out: herbicidal effect against LOLMU (Lolium multiflorum)) [%]	pest or weed control at 80 g/ha ([9]; 504 h, Avena fatua, read-out: herbicidal effect against AVEFA (Avena fatua)) [%]
C=C1COC2(C[C@@H]3C(OC(=O)OCC)=C(c4c(CC)cc(C)cc4CC)C(=O)[C@@H]3C2)OC1 (relative stereo) [I-c-12]	100	100	100	100	100	100	90	100	90	80	–	–	–	–	–
C=C1C[C@@H]2C(O)=C(c3c(CC)cc(C)cc3CC)C(=O)[C@@H]2C1 (stereo in doubt) [I-a-5, 2-(2,6-diethyl-4-methylphenyl)-3-hydroxy-5-methylidene-4,5,6,6a-tetrahydropentalen-1(3 aH)-one]	70	80	60	90	–	–	–	–	–	60	100	100	60	90	50
CCc1cc(C)cc(CC)c1C1=C(O)C2CC3(COC(CC)O3)CC2C1=O (centres unmarked) [I-a-6]	60	60	100	100	90	100	90	100	70	60	–	–	–	–	–
CCc1cc(C)cc(CC)c1C1=C(O)C2CC3(CC2C1=O)OC(C)CC(C)O3 (centres unmarked) [I-a-15]	70	70	80	100	90	100	90	100	90	40	–	–	–	–	–
Cc1cc(C)c(C2=C(O)C3CC4(CC3C2=O)OCCO4)c(C)c1 (centres unmarked) [I-a-39]	30	0	80	100	90	90	100	100	20	70	–	–	–	–	–
Cc1cc(C)c(C2=C(O)C3CC4(CC3C2=O)OCCCCO4)c(C)c1 (centres unmarked) [I-a-40]	50	80	50	100	80	90	80	90	60	40	–	–	–	–	–
C=C1CC2C(=O)C(c3c(C)cc(C)cc3OC)=C(O)C2C1 (centres unmarked) [I-a-45]	100	100	80	80	80	80	0	0	0	60	–	–	–	–	–
COc1cc(C)cc(C)c1C1=C(O)C2CC3(CC2C1=O)OCCO3 (centres unmarked) [I-a-48]	70	40	80	80	100	100	80	100	90	60	–	–	–	–	–
COc1cc(C)cc(C)c1C1=C(O)C2CC3(CC2C1=O)OCC=CCO3 (centres unmarked) [I-a-49]	90	100	100	100	100	100	100	100	100	90	–	–	–	–	–
COc1cc(C)cc(C)c1C1=C(O)C2CC3(CC2C1=O)OCCCCO3 (centres unmarked) [I-a-50]	70	80	100	100	100	100	100	100	100	60	–	–	–	–	–
C=C1CC2C(=O)C(c3c(C)cc(C)cc3CC)=C(O)C2C1 (centres unmarked) [I-a-55]	90	100	60	50	100	100	20	40	0	60	–	–	–	–	–
CCc1cc(C)cc(C)c1C1=C(O)C2CC3(CC2C1=O)OCCO3 (centres unmarked) [I-a-57]	90	100	80	100	100	100	100	100	100	60	–	–	–	–	–
CCc1cc(C)cc(C)c1C1=C(O)C2CC3(CC2C1=O)OCCCCO3 (centres unmarked) [I-a-61]	60	80	70	100	90	100	90	100	90	60	–	–	–	–	–
CCc1cc(C)cc(C)c1C1=C(O)C2CC3(COC(C)(C)O3)CC2C1=O (centres unmarked) [I-a-62]	90	100	100	100	90	100	100	100	80	40	–	–	–	–	–
CCc1cc(C)cc(CC)c1C1=C(O)C2CC(=NOC(C)(C)C)CC2C1=O (centres unmarked) [I-a-68]	0	50	40	80	40	100	90	100	0	40	–	–	–	–	–
CCc1cc(C)cc(CC)c1C1=C(O)C2CC(=NOCC(C)C)CC2C1=O (centres unmarked) [I-a-69]	80	20	50	70	80	100	90	100	30	70	–	–	–	–	–
CCc1cc(C)cc(CC)c1C1=C(O)C2CC(=NOCC(F)(F)F)CC2C1=O (centres unmarked) [I-a-70]	60	80	80	80	60	100	90	100	0	60	–	–	–	–	–
